Assay results as given in patent US20120202690A1, “HERBICIDAL COMPOUNDS” (SYNGENTA LIMITED, priority 2009, published 2012).

Tests used:
Format in all cases: in vivo
[1] = system: Echinochloa crusgaffi (ECHCG); experiment: Post-emergence biological efficacy, glasshouse, 500 or 1000 g/ha, evaluated after 13 days (100=total damage to plant; 0=no damage to plant); conditions: Echinochloa, 312 h, rate 1,000 g/ha, read-out: Percentage damage caused to weed species, post-emergence, ECHCG
Description: (§1) Seeds of Alopecurus myosuroides (ALOMY), Setaria faberi (SETFA), Echinochloa […]), Solanum nigrum (SOLNI), Amaranthus retroflexus (AMARE) and Ipomoea hederaceae (IPOHE) were sown in standard soil in pots. […] The test plants were then grown on under controlled conditions in a glasshouse (at 24/16° C., day/night; 14 hours light; 65% humidity) and watered twice daily. […]

[2] = system: Alopecurus myosuroides (ALOMY); experiment: as above; conditions: Alopecurus myosuroides, 312 h, rate 1,000 g/ha, read-out: Percentage damage caused to weed species, post-emergence, ALOMY
Description: as §1

[3] = system: Amaranthus retroflexus (AMARE); experiment: as above; conditions: Amaranthus retroflexus, 312 h, rate 1,000 g/ha, read-out: Percentage damage caused to weed species, post-emergence, AMARE
Description: as §1

Setaria faberi (SETFA) [4] = experiment: as above; conditions: Setaria faberi, 312 h, rate 1,000 g/ha, read-out: Percentage damage caused to weed species, post-emergence, SETFA
Description: as §1

Solanum nigrum (SOLNI) [5] = experiment: as above; conditions: Solanum nigrum, 312 h, rate 1,000 g/ha, read-out: Percentage damage caused to weed species, post-emergence, SOLNI
Description: as §1

[6] = system: Ipomoea hederaceae (IPOHE); experiment: as above; conditions: Ipomoea, 312 h, rate 1,000 g/ha, read-out: Percentage damage caused to weed species, post-emergence, IPOHE
Description: as §1

[7] = system: Alopecurus myosuroides (ALOMY); experiment: Pre-emergence biological efficacy, glasshouse, 1000 g/ha, evaluated after 13 days (100=total damage to plant; 0=no damage to plant); conditions: Alopecurus myosuroides, 312 h, rate 1,000 g/ha, read-out: Percentage damage caused to weed species, pre-emergence, ALOMY
Description: (§2) Seeds of Alopecurus myosuroides (ALOMY), Setaria faberi (SETFA), Echinochloa crus-galli (ECHCG), Solanum nigrum (SOLNI), Amaranthus retroflexus (AMARE) and Ipomoea hederaceae (IPOHE) were sown in standard soil in pots. […] The test plants were then grown under controlled conditions in the glasshouse (at 24/16° C., day/night; 14 hours light; 65% humidity) and watered twice daily. […]

[8] = system: Amaranthus retroflexus (AMARE); experiment: as above; conditions: Amaranthus retroflexus, 312 h, rate 1,000 g/ha, read-out: Percentage damage caused to weed species, pre-emergence, AMARE
Description: as §2

[9] = system: Echinochloa crus-galli (ECHCG); experiment: as above; conditions: Echinochloa crus-galli, 312 h, rate 1,000 g/ha, read-out: Percentage damage caused to weed species, pre-emergence, ECHCG
Description: as §2

Setaria faberi (SETFA) [10] = experiment: as above; conditions: Setaria faberi, 312 h, rate 1,000 g/ha, read-out: Percentage damage caused to weed species, pre-emergence, SETFA
Description: as §2

Solanum nigrum (SOLNI) [11] = experiment: as above; conditions: Solanum nigrum, 312 h, rate 1,000 g/ha, read-out: Percentage damage caused to weed species, pre-emergence, SOLNI
Description: as §2

[12] = system: Ipomoea hederaceae (IPOHE); experiment: as above; conditions: Ipomoea, 312 h, rate 1,000 g/ha, read-out: Percentage damage caused to weed species, pre-emergence, IPOHE
Description: as §2

| SMILES | pest or weed control at 1000 g/ha [1] | pest or weed control at 1000 g/ha [2] | pest or weed control at 1000 g/ha [3] | pest or weed control at 1000 g/ha (Setaria faberi (SETFA) [4]) | pest or weed control at 1000 g/ha (Solanum nigrum (SOLNI) [5]) | pest or weed control at 1000 g/ha [6] | pest or weed control at 1000 g/ha [7] | pest or weed control at 1000 g/ha [8] | pest or weed control at 1000 g/ha [9] | pest or weed control at 1000 g/ha (Setaria faberi (SETFA) [10]) | pest or weed control at 1000 g/ha (Solanum nigrum (SOLNI) [11]) | pest or weed control at 1000 g/ha [12] |
| --- | --- | --- | --- | --- | --- | --- | --- | --- | --- | --- | --- | --- |
| COC(=O)c1nc(-c2ccc(Cl)c(N(C)C)c2F)nc2[nH]c(C)c(C)c12 [Compound 1-120, 2-(4-Chloro-3-dimethylamino-2-fluorophenyl)-5,6-dimethyl-4-methoxycarbonyl-7H-pyrrolo[2,3-d]pyrimidine] | 0% | 0% | 10% | 0% | 20% | 20% | 0% | 0% | 0% | 0% | 0% | 0% |
| O=C(O)c1nc(Cl)nc2[nH]ccc12 [Compound 1-121, 4-carboxy-2-chloro-7H-pyrrolo[2,3-d]pyrimidine] | 0% | 0% | 0% | 0% | 10% | 0% | 0% | 0% | 0% | 0% | 0% | 0% |
| COC(=O)c1nc(Cl)nc2[nH]c(C)cc12 [Compound 1-126, 2-Chloro-4-methoxy-carbonyl-6-methyl-7H-pyrrolo[2,3-d]pyrimidine] | 0% | 0% | 0% | 0% | 0% | 0% | 0% | 0% | 0% | 0% | 0% | 0% |
| COC(=O)c1nc(-c2ccc(Cl)c(OC)c2F)nc2c1c(C)cn2C [Compound 2-64, 2-(4-Chloro-2-fluoro-3-methoxyphenyl)-5,7-dimethyl-4-methoxycarbonyl-7H-pyrrolo[2,3-d]pyrimidine] | 0% | 0% | 30% | 0% | 60% | 40% | 0% | 30% | 0% | 0% | 40% | 50% |
| COC(=O)c1nc(-c2ccc(Cl)c(F)c2)nc2c1ccn2CC1CC1 [Compound 5-18, 2-(4-Chloro-3-fluorophenyl)-7-cyclopropylmethyl-4-methoxycarbonyl-7H-pyrrolo[2,3-d]pyrimidine] | 0% | 0% | 0% | 0% | 20% | 0% | 0% | 0% | 0% | 0% | 0% | 0% |
| Cc1cc2c(C(=O)O)nc(-c3ccc(Cl)c(F)c3)nc2n1CC1CC1 [Compound 5-21, 4-Carboxy-2-(4-chloro-3-fluorophenyl)-7-cyclopropylmethyl-6-methyl-7H-pyrrolo[2,3-d]pyrimidine] | 10% | 10% | 70% | 10% | 50% | 30% | 10% | 100% | 0% | 10% | 40% | 30% |
